We go through one compound from patent US9593149B2, “Amylin and calcitonin receptor agonist” (Novo Nordisk A/S, priority 2014, dated 2017).

SMILES strings stand for the structures. Peptide text beside a SMILES is read from it. * marks the point of attachment. C18 diacid = O=C(O)CCCCCCCCCCCCCCCCC(=O)*

One data set in a line: Assay (X) pK, T½ in rat. The class given is in vivo, Sprague Dawley rats. Here is the method:
Assay (X)—pK—Determination of T½ in Rat
Pharmacokinetic (PK) studies rats were conducted in order to determine the T½ of mimylin peptide after i.v. and s.c. administration.
T½ values of the mimylin derivates of the invention is determined by pharmacokinetic studies in Sprague Dawley male rats, from Taconic Europe and the principles of laboratory animal care are followed.
An acclimatisation period of approximately 7 days was allowed before the animals entered the study. At start of the acclimatisation period the rats were in the weight range of 250-400 g.
The studies were conducted in an animal room which was illuminated to give a cycle of approximately 12 hours light and 12 hours darkness. The animals were group housed and had food and water ad lib. The animals were weighed on the days of dosing.
In the present studies the test substances were administered subcutaneously or intravenously in approximately 20 nmol/kg dose. The animals received a single subcutaneous injection to the neck for subtaneous administration or directly into the tail vein for intravenous administration. Each test substance was given to typically three but in some cases two or four animals.
A full plasma concentration-time profile, employing 8-10 sampling points, was obtained from each animal. In example blood samples were collected according to the following schedule: After subcutaneous or intravenous administration:
At each sampling time, 0.08 to 0.10 ml of blood was drawn from each animal. The blood samples were taken in the sublingual vein via venous puncture and the use of a capillary tube.
The blood samples were stabilised with EDTA. Blood samples were kept on ice for max 20 min. before centrifugation. Plasma was separated using centrifugation (i.e. at 4° C., 10 min., 1500G) and was immediately transferred to Micronic tubes or PCR plates. Approximately 40 μl plasma was transferred and was stored at −20° C. until assayed. The plasma samples were assayed for the content of mimylin compound by LCMS
The plasma concentration-time profiles were analysed by a non-compartmental pharmacokinetic analysis (NCA) using Phoenix WinNonlin 6.3 (Pharsight Inc., Mountain View, Calif., USA). NCA was performed using the individual plasma concentration-time profiles from each animal. T½ is the terminal half-life=In2/λz and was determined from λz, the first order rate constant associated with the terminal (log-linear) portion of the curve, estimated by linear regression of time vs. log concentration.

Data set [1] in a line: Assay (XVI) T½ and subcutaneous bioavailability in LYD-pigs. The data set is classed as in vivo. On the procedure: Assay (XVI)—Determination of T½ and Subcutaneous Bioavailability in LYD-Pigs
Pharmacokinetic (PK) studies in Landrace Yorkshire Duroc crossbreed (LYD) pigs were conducted in order to determine a) the protraction of the mimylin derivative after i.v. administration, and b) the bioavailability of the mimylin derivative after s.c. administration The LYD pig were delivered, treated and acclimatised as described in ASSAY XV above.
In the i.v. and s.c. studies, the mimylin derivative was dissolved in 50 mM phosphate, 70 mM sodium chloride and 0.05% polysorbate 80, pH=8.0 to a concentration of approximately 100 nmol/mL. Animals were dosed with 2 nmol/kg s.c. and 5 nmol/kg i.v.
The animals were dosed subcutaneously or intravenously as follows. […]
The plasma concentration of the respective mimylin derivative was analysed using LC-MS. Individual plasma concentration-time profiles were analysed by a non-compartmental model in Phoenix WinNonlin version 6.3 (Pharsight Inc., Mountain View, Calif., USA).
The resulting terminal half-life was determined based on intravenous administration. T½ is the terminal half-life=In2/λz and was determined from λz, the first order rate constant associated with the terminal (log-linear) portion of the curve, estimated by linear regression of time vs. log concentration.
The absolute bioavailability (F) was calculated as follows: […]

Take `CC(C)C[C@H](NC(=O)[C@H](C)NC(=O)[C@H](C)NC(=O)[C@@H](NC(=O)[C@H](CO)NC(=O)[C@H](CC(C)C)NC(=O)[C@H](CCC(=O)O)NC(=O)[C@H](CO)NC(=O)[C@H](C)NC(=O)[C@H](CCC(=O)O)NC(=O)CCCCCCCCCCCCCCCCC(=O)O)[C@@H](C)O)C(=O)NCC(=O)N[C@@H](CCCNC(=N)N)C(=O)N[C@@H](CC(C)C)C(=O)N[C@@H](CO)C(=O)N[C@@H](C)C(=O)N[C@@H](CCC(=O)O)C(=O)N[C@@H](CC(C)C)C(=O)N[C@@H](Cc1cnc[nH]1)C(=O)N[C@@H](CCC(=O)O)C(=O)N[C@@H](CC(C)C)C(=O)N[C@@H](C)C(=O)N[C@H](C(=O)N[C@@H](CC(C)C)C(=O)N1CCC[C@H]1C(=O)N[C@@H](CCCNC(=N)N)C(=O)N[C@H](C(=O)N[C@@H](CCC(=O)O)C(=O)N[C@H](C(=O)NCC(=O)N1CCC[C@H]1C(=O)N[C@@H](CCC(=O)O)C(=O)N[C@@H](CO)C(=O)N1CCC[C@H]1C(N)=O)[C@@H](C)O)[C@@H](C)O)[C@@H](C)O` [Ex. #2, [N-terminal(C18 diacid)]mimylin] ({C18 diacid}-EASELSTAALGRLSAELHELATLPRTETGPESP-NH2): the “PK rat iv T½” value in the data set “Assay (X) pK, T½ in rat” (i.v.) came out at 12 h. Also, in “Assay (X) pK, T½ in rat” (s.c.), the “PK rat sc T½” value was found to be 13 h. Moreover, the “Subcutaneous bioavailability (%)” value in data set [1] (LYD-pigs) is reported as 99%. Moreover, the “LYD-pigs iv PK, t½” value in data set [1] (i.v., harmonic mean, n = 3) worked out at 64 h.
